Reference: patent US9226503B2, “Composition and method for attraction of emerald ash borer Agrilus planipennis fairmaire (coleoptera: buprestidae)” (Her Majesty the Queen in Right of Canada, as represented by …, priority 2011, dated 2016)

Assays:
A. planipennis [1] = assay: Field trapping experiment 2 (2009), purple prism traps, Ontario; format: in vivo, Agrilus planipennis; conditions: as compared to the Phoebe oil alone
Experimental: (§1) Field trapping. Three trapping experiments were carried out in green ash plantations (F. pennsylvanica Marsch) with low-to-moderate A. planipennis populations about 40 km southeast of Sarnia, Ontario (42° 58′ 0 N, 82° 24′ 0 W) in 2008, 2009 and 2010. Trees at these sites were generally healthy in appearance with low or no signs of decline, and only a small number of trees had obvious signs/symptoms of infestation by A. planipennis. In Ontario sites, trees were 20-25 years old, 4-6 m tall, 10-15 cm in diameter, and spaced about 2 m apart within a row and 2.5 m between rows. In 2010, the trapping experiment was replicated at four sites in Michigan, USA, in addition to the sites in Ontario. Sites in Michigan were 10-100 years old, 10-30 m tall, 15-70 cm in diameter, and located in a mixed woodlot. […] Traps were checked every 2 weeks and A. planipennis were collected, counted and sexed. […]
(§2) The effect of each attractant on mean catch of female and male A. planipennis was analyzed independently using ANOVA and a randomized complete block design. Sites were analyzed separately in 2009 due to differences in sex ratios. In 2010, sites in Ontario were analyzed separately from those in Michigan due to the considerable differences in stand conditions and height of traps with respect to the ash canopy. […]

A. planipennis [2] = assay: Field trapping experiment 3 (2010), green sticky prism traps, Ontario and Michigan; format: in vivo, Agrilus planipennis; conditions: lactone alone
Experimental: as §1, §2

| Compound | number of male or female A. planipennis captured, effect of lactone alone or with Phoebe oil (A. planipennis [1]) | trap catch compared to unbaited control (A. planipennis [2]; green traps, 2010, Ontario and Michigan) | trap captures compared to unbaited control, sites in Ontario (A. planipennis [2]; green traps in the canopy, Ontario, P<0.02) |
| --- | --- | --- | --- |
| O=C1C/C=C/CCCCCCCCO1 [(3E)-lactone, (3E)-dodecen-12-olide] | neither (3Z) nor (3E)-lactone alone, or in combination with Phoebe oil, significantly increased | did not affect trap catch |  |
| O=C1C/C=C\CCCCCCCCO1 [(3Z)-lactone, (3Z)-dodecen-12-olide] | neither (3Z) nor (3E)-lactone alone, or in combination with Phoebe oil, significantly increased |  | slight increase in trap captures |
